Laboratory results as given in patent US6864251B2, “Treatment of LTB4-mediated inflammatory disorders with optically-pure (R)-2,3-benzodiazepines” (Vela Pharmaceuticals, Inc., priority 2002, dated 2005).
Where “and” joins values, the source holds several entries; their conditions need not be identical. Identical values can stand only once.

How the values were obtained:
DSS-induced colitis = assay: Dextran sulfate sodium induced colitis: mouse model of inflammatory bowel disease; type: in vivo, Swiss Webster mice; settings: for Mean DAI ± SEM: DSS 5% in tap water; for Mean DAI* ± SEM: DAI without weight loss parameter; for % of normal length: colon length
Method: In this model of colitis, an acute inflammation of the colon was produced by administration of dextran sulfate sodium (DSS) as a 5% solution in tap water. This colitis was characterized by histological events and an influx of neutrophils, macrophages and mediators of inflammation similar to those observed with human inflammatory bowel diseases. […] The following study was conducted in accordance with protocols of Okayasu et al., Gastroenterology, 98:694-702, 1990.
One hundred ten test animals (female, 6 week old Swiss Webster mice, 18-30 g) were divided into ten groups, selected to eliminate any statistical differences in mean group weight.
Each animal was dosed daily (IP) with either a test substance or vehicle, starting on Day 0. Beginning on Day 1, acute colon inflammation was induced by the administration ad libitum in drinking water of dextran sulfate sodium (DSS) as a 5% solution in tap water (10 mL/mouse/day for 5-6 days), with no other fluid source for animals in the DSS arm of the study. Filtered tap water was available ad libitum except for animals receiving 5% DSS as the sole source of fluid. After four days, signs of acute disease occured with the loss of weight, diarrhea and bloody stools. Histological changes included initial shortening of the crypts, then areas of separation of the crypts and the muscularis mucosae in the absence of destructive inflammatory filtrate. After five days, pathological changes became confluent with the appearance of erosions and early hyperplastic epithelium. Inflammation scores were high with neutrophils, lymphocytes, and plasma cells in the lamina propria but sparing the epithelium.
Test compounds were administered intraperitoneally (IP). Test compounds given during this period were evaluated for prophylactic activity and test compounds given after the disease state was established were evaluated for therapeutic activity.
Test animals were weighed daily from Day 0 to Day 8, or until completion of the study. The total duration of the study with DSS arm of the study was varied depending on the time progress of colitis. The condition of the test animals and consistency of stools was noted.
At the conclusion of the study, test animals were euthanized (CO2), a midline incision was made and a stool sample was obtained. The sample was placed on a slide and tested for occult blood (Quic-Cult™, Laboratory Diagnostics Co., Morganville, N.J.). Occult blood was determined by placing two drops of the reagent onto the sample and observing any color change. Occult blood presence was graded using a scoring protocol assigning a score of 0 for no color; 1 for a very light blue color (+/−) forming in >30 seconds; 2 for a blue color developing in 30 seconds or more (+); 3 for a change in color occurring in less than 30 seconds (++); and 4 for gross blood observable on the slide. The colon was gently stretched and the length from the colon-cecal junction to the end of the distal rectum was measured to the nearest 0.1 cm.
The scores for each test animal were added and then divided by three to give a DAI score for each animal.

[1] = system: LTB4-induced dermal inflammation; assay: Rabbit model of LTB4-induced dermal inflammation, histopathology of intradermal challenge sites; type: in vivo, New Zealand White Rabbits; set-up: key to Inflammation score / Edema score: 0=normal; T=trace; 1=minimal; 2=mild; 3=moderate; 4=marked; settings: test article IP 60 mg/kg (dexamethasone 0.5 mg/kg); for Edema score / Inflammation score: 4 hr after challenge
Method: Test compounds were prepared as follows. The vehicle was first prepared by dissolving […] of hydroxypropylmethylcellulose 2910 (HPMC)(Sigma Chemical, St. Louis, Mo.) in 50 mL of 0.9% saline to yield a concentration of 2% HPMC. The three test articles, (R)-, (S)- and racemic tofisopam, were formulated by adding 1 g of each test article to 10 mL of vehicle.
On Day 0, the rabbits were sedated with ketamine/xylazine (35/5 mg/kg, s.c.) and an area of approximately 8×14 cm on the back was closely and carefully clipped to expose the skin, but not inflame or otherwise damage the epithelium. A grid of ten squares each approximately 2.5×2.5 cm was drawn on each animal's back using an indelible marker. The animals were then dosed intraperitoneally with the appropriate test article corresponding to the group. Thirty minutes after dosing with test or control article, the animals were challenged intradermally with the LTB4 or LTB4-aminopropamide (LTB4-AP, a synthetic LTB4 agonist) in the appropriate site as shown in Table 4. Each injection site was marked with an indelible marker in order to identify the exact location of the intradermal injection site. Sixty minutes after challenge, the animals were treated again with tofisopam or control articles. The animals were sacrificed 4 hrs. after challenge, and the intradermal injection sites were excised, fixed in 10% neutral buffered formalin (NBF), and submitted for histopathology. H&E-stained sections were read by a board-certified veterinary pathologist using light microscopy.
All animals were sacrificed 4 hr after challenge. The intradermal challenge sites were excised, placed on unique cardboard squares, fixed in 10% NBF, and submitted for histopathology. The skin sections included the epidermis and the subcutis, down to the back musculature.
The marked skin sections were fixed for at least 48 hours on small cardboard squares. At gross trimming, three levels were cut through marked skin region in order to assure that the injection sites is brought into the plane of section. The skins were gross trimmed, processed by dehydration, embedded in paraffin, sectioned at 3-5 μm, and stained with hematoxylin and eosin.
The tissues were evaluated histopathologically via light microscopy by a board-certified veterinary pathologist. Initially, the identity of the slides was masked in order to perform the initial evaluation and rank the slides. The slides were then unmasked and there was a careful assessment of the lesions and careful comparison of the tofisopam-treated sites to the vehicle and positive control tissues. The lesions were graded based upon the degree of inflammation and the degree of edema. The severity of the inflammation and edema was keyed as follows: 0=normal; T=trace; 1=minimal; 2=mild; 3=moderate; 4=marked.

CC[C@H]1C(C)=NN=C(c2ccc(OC)c(OC)c2)c2cc(OC)c(OC)cc21 [(R)-tofisopam, (R)-1-(3,4-dimethoxyphenyl)-4-methyl-5-ethyl-7,8-dimethoxy-5H-2,3-benzodiazepine]
Mean colon length CM ± SEM (DSS-induced colitis; 16 mg/kg IP daily, DSS 5%): 9.0 ± 0.28 CM
Mean DAI ± SEM (DSS-induced colitis; 16 mg/kg IP daily): 2.22 ± 0.34
Mean weight ± SEM, Day 0 (DSS-induced colitis; 16 mg/kg IP daily, DSS 5%): 26.1 ± 0.5 g
% weight change ± SEM, Day 8 (DSS-induced colitis; 16 mg/kg IP daily, DSS 5%): 0.0 ± 1.4%
Mean weight ± SEM, Day 8 (DSS-induced colitis; 16 mg/kg IP daily, DSS 5%): 26.1 ± 0.6 g
% weight change ± SEM, Day 9 (DSS-induced colitis; 16 mg/kg IP daily, DSS 5%): 3.3 ± 1.8%
Mean weight ± SEM, Day 9 (DSS-induced colitis; 16 mg/kg IP daily, DSS 5%): 25.2 ± 0.6 g
% weight change ± SEM, Day 10 (DSS-induced colitis; 16 mg/kg IP daily, DSS 5%): 5.4 ± 3.4%
Mean weight ± SEM, Day 10 (DSS-induced colitis; 16 mg/kg IP daily, DSS 5%): 24.7 ± 1.0 g
Mean colon length CM ± SEM (DSS-induced colitis; 32 mg/kg IP daily, DSS 5%): 8.9 ± 0.41 CM
Mean DAI ± SEM (DSS-induced colitis; 32 mg/kg IP daily): 2.33 ± 0.28
Mean weight ± SEM, Day 0 (DSS-induced colitis; 32 mg/kg IP daily, DSS 5%): 25.0 ± 0.4 g
% weight change ± SEM, Day 8 (DSS-induced colitis; 32 mg/kg IP daily, DSS 5%): 0.8 ± 1.6%
Mean weight ± SEM, Day 8 (DSS-induced colitis; 32 mg/kg IP daily, DSS 5%): 26.2 ± 0.4 g
% weight change ± SEM, Day 9 (DSS-induced colitis; 32 mg/kg IP daily, DSS 5%): 1.9 ± 2.1%
Mean weight ± SEM, Day 9 (DSS-induced colitis; 32 mg/kg IP daily, DSS 5%): 25.5 ± 0.6 g
% weight change ± SEM, Day 10 (DSS-induced colitis; 32 mg/kg IP daily, DSS 5%): 4.4 ± 2.1%
Mean weight ± SEM, Day 10 (DSS-induced colitis; 32 mg/kg IP daily, DSS 5%): 24.6 ± 0.6 g
Protection from the LTB4-mediated inflammatory responses to DSS-induced colitis (DSS-induced colitis; 64 mg per kg, based on colon length and DAI): significant protection
Mean colon length CM ± SEM (DSS-induced colitis; 64 mg/kg IP daily, DSS 5%): 9.8 ± 0.35 CM
Mean DAI ± SEM (DSS-induced colitis; 64 mg/kg IP daily): 1.73 ± 0.27^1
Mean weight ± SEM, Day 0 (DSS-induced colitis; 64 mg/kg IP daily, DSS 5%): 26.2 ± 0.5 g
% weight change ± SEM, Day 8 (DSS-induced colitis; 64 mg/kg IP daily, DSS 5%): 0.1 ± 1.9%
Mean weight ± SEM, Day 8 (DSS-induced colitis; 64 mg/kg IP daily, DSS 5%): 26.2 ± 0.5 g
% weight change ± SEM, Day 9 (DSS-induced colitis; 64 mg/kg IP daily, DSS 5%): 2.9 ± 1.9%
Mean weight ± SEM, Day 9 (DSS-induced colitis; 64 mg/kg IP daily, DSS 5%): 25.4 ± 0.5 g
% weight change ± SEM, Day 10 (DSS-induced colitis; 64 mg/kg IP daily, DSS 5%): 2.8 ± 2.5%
Mean weight ± SEM, Day 10 (DSS-induced colitis; 64 mg/kg IP daily, DSS 5%): 25.4 ± 0.5 g
Mean DAI* ± SEM (DSS-induced colitis; 16 mg/kg IP daily, DSS 5%): 2.61 ± 0.37
Mean DAI* ± SEM (DSS-induced colitis; 32 mg/kg IP daily, DSS 5%): 2.75 ± 0.26
Mean DAI* ± SEM (DSS-induced colitis; 64 mg/kg IP daily, DSS 5%): 2.20 ± 0.26^1
inhibition at 16 mg/kg (DSS-induced colitis; Mus musculus, 16 mg/kg IP daily, DSS 5%, read-out: Colon shortening inhib. %): 24%
inhibition at 32 mg/kg (DSS-induced colitis; Mus musculus, 32 mg/kg IP daily, DSS 5%, read-out: Colon shortening inhib. %): 22%
inhibition at 64 mg/kg (DSS-induced colitis; Mus musculus, 64 mg/kg IP daily, DSS 5%, read-out: Colon shortening inhib. %): 41%
% of normal length (DSS-induced colitis; 16 mg/kg IP daily, DSS 5%): 72.4%
% of normal length (DSS-induced colitis; 32 mg/kg IP daily, DSS 5%): 71.3%
% of normal length (DSS-induced colitis; 64 mg/kg IP daily, DSS 5%): 78.5%
Edema score ([1]; injection site: LTB4 500 ng): 1 and 3
Inflammation score ([1]; injection site: LTB4 500 ng): 1
Edema score ([1]; injection site: LTB4 1000 ng): 2 and 3
Inflammation score ([1]; injection site: LTB4 1000 ng): 1 and 2
Edema score ([1]; injection site: LTB4 2000 ng): 2 and 3
Inflammation score ([1]; injection site: LTB4 2000 ng): 1-2 and 1
Edema score ([1]; injection site: LTB-ap 500 ng): 1 and 3
Inflammation score ([1]; injection site: LTB-ap 500 ng): 1
Edema score ([1]; injection site: LTB-ap 1000 ng): 2 and 3
Inflammation score ([1]; injection site: LTB-ap 1000 ng): 1 and 2
Edema score ([1]; injection site: LTB-ap 2000 ng): 2 and 3 and 1
Inflammation score ([1]; injection site: LTB-ap 2000 ng): 1 and 2
Edema score ([1]; injection site: Vehicle 0 ng): 0 and 1 and 2
Inflammation score ([1]; injection site: Vehicle 0 ng): 0 and 1
Histopathology finding: reduction of inflammation and edema ([1]; summary in words): meaningful reduction in the severity of the inflammatory cell infiltration and less edema
